Results reported in patent publication US20240228973A9, “NON-ALCOHOLIC FATTY LIVER ARTIFICIAL TISSUE MODEL” (CELLARTGEN INC., priority 2021, published 2024).

Tests used:
normal liver organoids = assay: Viability of normal liver organoids treated with the drug (cytotoxicity); type: cell-based, human
Procedure: Also, when the viability of the normal liver organoids treated with the drug was analyzed to evaluate the cytotoxicity depending on the concentration of the drug, it was confirmed that the viability was 80% or more at 1 μM, 70% at 10 μM, and about 60% at 100 μM (FIG. 15B). That is, it was confirmed that liver toxicity increased as the treatment concentration of OCA increased.
(§1) Also, when the viability of the normal liver organoids treated with the drug was analyzed to evaluate the cytotoxicity depending on the concentration of the drug, it was confirmed that the viability was 70% or more at 1 μM to 10 μM and about 50% at 100 μM (FIG. 16B).
as §1, with “not affected at a concentration of up to 1 μM, and it was 80%” for “70%”, “at” for “at 1 μM to”, “60%” for “50%”, “17B).” for “16B).”

[1] = test system: human tissue-derived non-alcoholic steatohepatitis (NASH) liver organoids; assay: Drug efficacy evaluation in human tissue-derived NASH liver organoids co-cultured with EC, KC and HSC in LEM-Chip; type: cell-based
Excerpt: (§2) Steatohepatitis (NASH) was induced in liver organoids in which a liver tissue microenvironment [vascular endothelial cells (E)+Kupffer cells (K)+hepatic stellate cells (S)] was constructed under culture conditions in which the decellularized liver tissue-derived LEM scaffold and the multiwell microfluidic device were combined, followed by treatment with obeticholic acid (OCA) at different concentrations. OCA (Obeticholic acid) is a semi-synthetic bile acid analogue that has conventionally been used to treat cholangitis and is a drug candidate whose efficacy has recently been verified in non-alcoholic steatohepatitis clinical trials. The NASH group was treated with 800 μM fatty acid for 3 days to induce a disease, and the NASH+OCA group was treated with 800 μM fatty acid and the corresponding drug for 3 days at different concentrations.
as §2, with “ezetimibe (Eze)” for “obeticholic acid (OCA)”, “Eze (Ezetimibe)” for “OCA (Obeticholic acid)”, “cholesterol absorption inhibitor and is a drug candidate” for “semi-synthetic bile acid analogue”, “hyperglycemic cholesterol” for “cholangitis”, “lipid abnormalities.” for “is a drug candidate whose efficacy has recently been verified in non-alcoholic steatohepatitis clinical trials.”, “NASH+Eze” for “NASH+OCA”
as §2, with “dapagliflozin (DAPA)” for “obeticholic acid (OCA)”, “DAPA (Dapagliflozin)” for “OCA (Obeticholic acid)”, “sodium-glucose transporter inhibitor and is a drug candidate” for “semi-synthetic bile acid analogue”, “diabetes.” for “cholangitis and is a drug candidate whose efficacy has recently been verified in non-alcoholic steatohepatitis clinical trials.”, “NASH+DAPA” for “NASH+OCA”

[2] = 800 μM fatty acid + drug for 3 days at different concentrations
[3] = drug concentration of 10 μM or more

| SMILES | viability of the normal liver organoids (normal liver organoids; 10 μM drug) [%] | viability of the normal liver organoids (normal liver organoids; 100 μM drug) | viability of the normal liver organoids (normal liver organoids; concentration of up to 1 μM) | viability of the normal liver organoids (normal liver organoids; 1 μM to 10 μM drug) [%] | amount of fat accumulation [1, 2] | morphology and structure of the organoid [1, 2] | expression of the fibrosis marker, quantitative PCR [1, 3] | expression of the inflammation marker, quantitative PCR [1, 3] | expression of fibrosis-related marker (SMA), quantitative PCR ([1]; vs NASH group, 3 days) | expression of inflammation-related marker (TNFα), quantitative PCR ([1]; vs NASH group, 3 days) | viability of the normal liver organoids (normal liver organoids; 1 μM drug) [%] | liver toxicity (normal liver organoids; as the treatment concentration increased) |
| --- | --- | --- | --- | --- | --- | --- | --- | --- | --- | --- | --- | --- |
| CCOc1ccc(Cc2cc([C@@H]3O[C@H](CO)[C@@H](O)[C@H](O)[C@H]3O)ccc2Cl)cc1 [DAPA, dapagliflozin] | ≥ 80 | about 60% | not affected |  |  |  |  |  |  |  |  |  |
| O=C1[C@H](CC[C@H](O)c2ccc(F)cc2)[C@@H](c2ccc(O)cc2)N1c1ccc(F)cc1 [Eze, ezetimibe] |  | about 50% |  | ≥ 70 | reduced as the concentration increased | recovered | decreased to a level similar to that in the normal organoid | decreased to a level similar to that in the normal organoid | decreased | decreased |  |  |
| CC[C@H]1[C@@H](O)[C@@H]2[C@H](CC[C@]3(C)[C@@H]([C@H](C)CCC(=O)O)CC[C@@H]23)[C@@]2(C)CC[C@@H](O)C[C@@H]12 [OCA, obeticholic acid] | 70 | about 60% |  |  |  |  |  |  |  |  | ≥ 80 | increased |
